Literature values, collected in publication PMC2667333 (Molecular cell, 2009).

System: calcineurin (CN)
Conditions: ref Swanson et al., 1992; Yin and Ochs, 2003

Compound	effect on CN-mediated pNPP dephosphorylation
C=CC[C@@H]1/C=C(\C)C[C@H](C)C[C@H](OC)[C@H]2O[C@@](O)(C(=O)C(=O)N3CCCC[C@H]3C(=O)O[C@H](/C(C)=C/[C@@H]3CC[C@@H](O)[C@H](OC)C3)[C@H](C)[C@@H](O)CC1=O)[C@H](C)C[C@@H]2OC [FK506]	increase CN-mediated pNPP dephosphorylation
cyclosporin A [CsA]	increase CN-mediated pNPP dephosphorylation
